Converted amounts (≈) assume the structure as drawn.
Columns and labels:
Solubility in water = format: physicochemical; settings: compound and its acceptable salts
[1] = system: Eimeria acervulina and Eimeria tenella (mixed inoculum); assay: Anticoccidial evaluation in infected chicks, survival; format: in vivo, Eimeria tenella; chicks; settings: for Percent Survival: chicks, 7 days after inoculation
Protocol: (§1) The poultry diet employed in the test is as follows: The vitamin-amino acid premix in the above feed composition is prepared from the following formulation. The expressions of quantity relate to units per kilogram of the finished feed composition. A mixed inoculum of 5000 sporulated oocysts of Eimeria acervulina and a sufficient number of oocysts of Eimeria tenella to produce 60% to 75% mortality in untreated controls were given to one-day-old chicks, by direct inoculation into the crops of all chicks. The chicks were given free access to feed and water during the entire test period. Two days before inoculation, medicated feed with several levels of drug was presented to the various groups of chicks. Seven days after inoculation, the tests were terminated and the chicks were weighed, necropsied, and their intestinal tracts examined for lesions.

gram-positive bacteria = assay: In vitro antimicrobial spectrum, summary; format: cell-based
Protocol: (§2) The in vitro antimicrobial spectrum of LL-D42067β was determined by the agar plate dilution method with Mueller-Hinton agar and an inoculum of each test organism of approximately 10^4 colony forming units delivered by the Steers replicating device. The minimal inhibitory concentration (MIC) in mcg/ml was defined as the lowest concentration of LL-D42067β that inhibited visible growth after 18 hours incubation at 35° C.

yeasts = assay: In vitro antimicrobial spectrum, summary; format: cell-based
Protocol: as §2

Eimeria tenella = assay: Anticoccidial evaluation in infected chicks, intestinal lesions; format: in vivo, Eimeria tenella; chicks; settings: for Percent Chicks with Reduced Lesions E. tenella: 7 days after inoculation
Protocol: as §1

Enterococcus = assay: In vitro antimicrobial spectrum, agar plate dilution MIC; format: cell-based; settings: 18 h, 35° C.
Protocol: as §2

[2] = system: Staphylococcus epidermidis; assay: as above; format: cell-based; settings: CMC 83-56, Mueller-Hinton agar, 18 hours, 35° C.
Protocol: as §2

Streptococcus sanguis = assay: as above; format: cell-based; settings: G9B (a), Mueller-Hinton agar, 18 hours, 35° C.
Protocol: as §2

Streptococcus faecalis = assay: as above; format: cell-based; settings: Enterococcus faecalis, ATCC29212; ATCC 29212; Mueller-Hinton agar, 18 hours, 35° C.
Protocol: as §2

Bacillus subtilis = assay: as above; format: cell-based; settings: ATCC6633, ATCC 6633, Mueller-Hinton agar, 18 hours, 35° C.
Protocol: as §2

Bacillus cereus = assay: as above; format: cell-based; settings: LL No. 4, Mueller-Hinton agar, 18 hours, 35° C.
Protocol: as §2

Micrococcus luteus = assay: as above; format: cell-based; settings: PC 1001, Mueller-Hinton agar, 18 hours, 35° C.
Protocol: as §2

Staphylococcus aureus = assay: as above; format: cell-based; settings: 18 h, 35° C.
Protocol: as §2

Eimeria acervulina = assay: Anticoccidial evaluation in infected chicks, intestinal lesions; format: in vivo, Eimeria acervulina; chicks; settings: 0.5 ppm to 5.0 ppm in diet
Protocol: as §1

COc1c2c(c(O)c3c(=O)c4c(oc13)[C@@H](O)CC[C@@H]4O)-c1c3c(c4cc(C)[nH]c(=O)c4c1O)OCO[C@H]3C2 (relative stereo) [LL-D42067β]
solubility in water (Solubility in water): relatively insoluble in water | survival of infected chicks ([1]; 0.5 ppm to 5.0 ppm in diet): improved survival | Percent Survival ([1]; 0.5 ppm in diet): 40% | Percent Survival ([1]; 0.75 ppm in diet): 60% | Percent Survival ([1]; 1.00 ppm in diet): 80% | Percent Survival ([1]; 2.5 ppm in diet): 100% | Percent Survival ([1]; 5.0 ppm in diet): 80% | activity versus gram-positive bacteria (gram-positive bacteria): active | activity against yeasts (yeasts): moderately active | suppression of lesions due to E. tenella (Eimeria tenella; 0.5 ppm to 5.0 ppm in diet): significant suppression of lesions | Percent Chicks with Reduced Lesions E. tenella (Eimeria tenella; 0.5 ppm in diet): 0% | Percent Chicks with Reduced Lesions E. tenella (Eimeria tenella; 0.75 ppm in diet): 40% | Percent Chicks with Reduced Lesions E. tenella (Eimeria tenella; 1.00 ppm in diet): 80% | Percent Chicks with Reduced Lesions E. tenella (Eimeria tenella; 2.5 ppm in diet): 100% | Percent Chicks with Reduced Lesions E. tenella (Eimeria tenella; 5.0 ppm in diet): 100% | MIC (Enterococcus; OSU 75-1, Mueller-Hinton agar): 1 µg/mL (≈ 1.92 µM) | MIC (Enterococcus; SM 77-15, Mueller-Hinton agar): 2 µg/mL (≈ 3.84 µM) | MIC [2]: 0.5 µg/mL (≈ 0.959 µM) | MIC (Streptococcus sanguis): 0.5 µg/mL (≈ 0.959 µM) | MIC (Streptococcus faecalis): 1 µg/mL (≈ 1.92 µM) | MIC (Bacillus subtilis): 4 µg/mL (≈ 7.67 µM) | MIC (Bacillus cereus): ≤ 0.06 µg/mL | MIC (Micrococcus luteus): ≤ 0.06 µg/mL | MIC (Staphylococcus aureus; LL No. 14, Mueller-Hinton agar): 0.5 µg/mL (≈ 0.959 µM) | MIC (Staphylococcus aureus; LL No. 27, Mueller-Hinton agar): ≤ 0.06 µg/mL | MIC (Staphylococcus aureus; Smith, Mueller-Hinton agar): 0.5 µg/mL (≈ 0.959 µM) | suppression of lesions due to E. acervulina (Eimeria acervulina): significant suppression of lesions
